The text below walks through data of patent US20180327396A1, “NOVEL PYRIDINE DERIVATIVES” (Hoffmann-La Roche Inc., priority 2014, published 2018).

T1 sequence (P34972 whole entry): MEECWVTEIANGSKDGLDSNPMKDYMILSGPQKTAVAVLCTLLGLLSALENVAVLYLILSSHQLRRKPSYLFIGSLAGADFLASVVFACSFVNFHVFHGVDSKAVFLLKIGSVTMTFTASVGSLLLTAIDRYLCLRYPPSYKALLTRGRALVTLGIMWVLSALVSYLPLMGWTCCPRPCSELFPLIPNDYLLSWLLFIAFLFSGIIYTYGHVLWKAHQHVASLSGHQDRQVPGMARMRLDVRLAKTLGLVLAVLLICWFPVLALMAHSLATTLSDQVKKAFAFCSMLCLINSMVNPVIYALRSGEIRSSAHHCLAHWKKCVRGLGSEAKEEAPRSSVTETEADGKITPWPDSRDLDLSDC

One test has as its target T1, human CB2 receptors (Homo sapiens, UniProt P34972).
T1 construct: expressed in transfected cells; host or cells: CHO cells
The experiment in a line: cAMP assay. It counts as cell-based.
Details: not given
Here is the method: CHO cells expressing human CB1 or CB2 receptors are seeded 17-24 hours prior to the experiment 50.000 cells per well in a black 96 well plate with flat clear bottom (Corning Costar #3904) in DMEM (Invitrogen No. 31331), 1× HT supplement, with 10% fetal calf serum and incubated at 5% CO2 and 37° C. in a humidified incubator. The growth medium was exchanged with Krebs Ringer Bicarbonate buffer with 1 mM IBMX and incubated at 30° C. for 30 min. Compounds were added to a final assay volume of 100 μl and incubated for 30 min at 30° C. Using the cAMP-Nano-TRF detection kit the assay (Roche Diagnostics) was stopped by the addition of 50 μl lysis reagent (Tris, NaCl, 1.5% Triton X100, 2.5% NP40, 10% NaN3) and 50 μl detection solutions (20 μM mAb Alexa700-cAMP 1:1, and 48 μM Ruthenium-2-AHA-cAMP) and shaken for 2 h at room temperature. The time-resolved energy transfer is measured by a TRF reader (Evotec Technologies GmbH), equipped with a ND:YAG laser as excitation source. The plate is measured twice with the excitation at 355 nm and at the emission with a delay of 100 ns and a gate of 100 ns, total exposure time 10 s at 730 (bandwidth 30 nm) or 645 nm (bandwidth 75 nm), respectively. The FRET signal is calculated as follows: FRET=T730−Alexa730−P(T645−B645) with P=Ru730−B730/Ru645−B645, where T730 is the test well measured at […], T645 is the test well measured at 645 nm, B730 and B645 are the buffer controls at 730 nm and 645 nm, respectively. cAMP content is determined from the function of a standard curve spanning from 10 μM to 0.13 nM cAMP.
EC50 values were determined using Activity Base analysis (ID Business Solution, Limited). The EC50 values for a wide range of cannabinoid agonists generated from this assay for reference compounds were in agreement with the values published in the scientific literature.
A word on the EC50: it is the concentration that produces a half-maximal response. Consider `CC(C)(COC1CCCCO1)c1cc(NC(=O)c2cnc(C3CC3)c(OCC3CC3)n2)on1` (stereo not drawn) [Example 24, 5-Cyclopropyl-6-(cyclopropylmethoxy)-N-[3-[2-methyl-1-(oxan-2-yloxy)propan-2-yl]-1,2-oxazol-5-yl]pyrazine-2-carboxamide], for which a half-maximal effect (EC50) was put at 75.2 nM.
`COCCOCC(C)(C)c1cc(NC(=O)c2ccc(C3CC3)c(OCC3CC3)n2)on1` [Example 18, 5-Cyclopropyl-6-(cyclopropylmethoxy)-N-[3-[1-(2-methoxyethoxy)-2-methylpropan-2-yl]-1,2-oxazol-5-yl]pyridine-2-carboxamide] gave an EC50 of 35.2 nM.
On the same count and under the same terms, as for `CC(C)(CN=[N+]=[N-])c1cc(NC(=O)c2cnc(C3CC3)c(OCC3CC3)n2)on1` [Example 26, N-[3-(1-Azido-2-methylpropan-2-yl)-1,2-oxazol-5-yl]-5-cyclopropyl-6-(cyclopropylmethoxy)pyrazine-2-carboxamide], the figure is 12.4 nM; as for `Cc1nnc(C(C)(C)NC(=O)c2cccc(-c3ccc(Cl)cc3Cl)n2)o1` [Example 15, 6-(2,4-Dichlorophenyl)-N-[2-(5-methyl-1,3,4-oxadiazol-2-yl)propan-2-yl]pyridine-2-carboxamide], 107 nM.

Staying with this test, now noted: CHO cells expressing human CB2 receptors; read-out: cAMP assay human CB2 EC50.
`CC(C)(Cc1nnc(-c2ccc(F)cc2)o1)NC(=O)c1ccc(N2CC(F)(F)C2)c(OCC2CC2)n1` [Example 27, 6-(Cyclopropylmethoxy)-5-(3,3-difluoroazetidin-1-yl)-N-[1-[5-(4-fluorophenyl)-1,3,4-oxadiazol-2-yl]-2-methylpropan-2-yl]pyridine-2-carboxamide]: the EC50 came out at 2890 nM.
Take `COCCOCC(C)(C)c1cc(NC(=O)c2ccc(C3CCCC3)c(OCC3CC3)n2)on1` [Example 29, 5-Cyclopentyl-6-(cyclopropylmethoxy)-N-[3-[1-(2-methoxyethoxy)-2-methylpropan-2-yl]-1,2-oxazol-5-yl]pyridine-2-carboxamide]: the EC50 came out at 175 nM.
